Source: ChEMBL document CHEMBL4689842, “EUbOPEN Chemogenomics Library wave 1” (2021)

How the values were obtained:
Type in all cases: toxicity, cell-based
Fibroblast = assay: Incucyte cell viability with human fibroblast; conditions: 10 µM, compound concentration 10 uM
HEK-293T = assay: Incucyte cell viability with HEK293T; conditions: human, 10 µM, compound concentration 10 uM
U2OS = assay: Incucyte cell viability with U2OS; conditions: human, 10 µM, compound concentration 10 uM
[1] = 0 h, replicate number 1, timepoint 0 hours
[2] = 0 h, replicate number 2, timepoint 0 hours
[3] = 6 h, replicate number 2, timepoint 6 hours
[4] = 12 h, replicate number 2, timepoint 12 hours
[5] = 24 h, replicate number 2, timepoint 24 hours
[6] = 6 h, replicate number 1, timepoint 6 hours
[7] = 12 h, replicate number 1, timepoint 12 hours
[8] = 18 h, replicate number 1, timepoint 18 hours
[9] = 24 h, replicate number 1, timepoint 24 hours
[10] = 18 h, replicate number 2, timepoint 18 hours
Note: filed as whole numbers so only -1 and 0 and 1 occur.

Structure (SMILES)	Growth Rate (Fibroblast; [1])	Growth Rate (Fibroblast; [3])	Growth Rate (Fibroblast; [4])	Growth Rate (HEK-293T; [2])	Growth Rate (HEK-293T; [6])	Growth Rate (HEK-293T; [7])	Growth Rate (HEK-293T; [8])	Growth Rate (HEK-293T; [9])	Growth Rate (U2OS; [6])	Growth Rate (U2OS; [7])	Growth Rate (U2OS; [8])	Growth Rate (U2OS; [10])	Growth Rate (U2OS; [9])	Growth Rate (U2OS; [5])	Growth Rate (Fibroblast; [7])	Growth Rate (Fibroblast; [8])	Growth Rate (Fibroblast; [9])	Growth Rate (U2OS; [1])	Growth Rate (U2OS; [2])	Growth Rate (HEK-293T; [1])	also measured
COc1cc(N2CCC(O)CC2)ccc1Nc1cc(Nc2ccccc2S(=O)(=O)C(C)C)c2cc[nH]c2n1	1	1	1	1	0	0	0	0	1	1	1	0	1	0	–	–	–	–	–	–	Growth Rate (Fibroblast; [2]): 0; Growth Rate (Fibroblast; [5]): 1
COc1ccc(CCc2nc3cc(-c4c(C)noc4C)ccc3n2C[C@H](C)N2CCOCC2)cc1Cl	0	0	–	1	0	1	0	0	0	1	1	–	1	–	1	1	1	1	0	–	Growth Rate (Fibroblast; [6]): 1; Growth Rate (HEK-293T; [3]): 1; Growth Rate (HEK-293T; [4]): 0; Growth Rate (HEK-293T; [10]): 1
CN1CCN(c2ccc(-c3cccc(CN4CCOCC4)c3)cc2NC(=O)c2c[nH]c(=O)cc2C(F)(F)F)CC1	–	0	0	1	0	0	1	1	1	0	0	1	1	0	1	1	1	0	–	–	Growth Rate (Fibroblast; [2]): 1; Growth Rate (U2OS; [3]): 0
CC(C)(C)c1ccc(C(=O)Nc2cn3cc(-n4ccnc4)ccc3n2)cc1.Cl.Cl	0	–	–	1	0	0	0	0	1	1	1	–	1	–	1	1	1	1	0	–	–
COc1ccc2c(c1)O[C@H](c1ccc(OC)c(OC)c1)C[C@@H]2NC(=O)C1(c2ccc3c(c2)OC(F)(F)O3)CC1 [A-1596584]	0	–	–	0	0	0	0	0	–	1	1	0	1	–	1	1	1	0	–	1	Growth Rate (Fibroblast; [10]): 0; Growth Rate (Fibroblast; [5]): 0; Growth Rate (U2OS; [3]): 0; Growth Rate (U2OS; [4]): 0
COc1ccc2c(c1)O[C@@H](c1ccc(OC)c(OC)c1)C[C@H]2NC(=O)C1(c2ccc3c(c2)OC(F)(F)O3)CC1 [A-1596586]	0	–	–	0	0	0	0	0	–	1	1	–	1	–	–	1	1	0	–	1	–
O=C(N1CCS(=O)(=O)CC1)N1C[C@H](c2ccc(OC(F)(F)F)cc2)C[C@H](c2nc(C3CC3)no2)C1 [BAY-386]	0	0	0	–	1	0	0	0	0	0	0	1	0	1	–	–	1	–	0	0	Growth Rate (Fibroblast; [10]): 0; Growth Rate (Fibroblast; [5]): 0; Growth Rate (HEK-293T; [4]): 1; Growth Rate (U2OS; [3]): 1; Growth Rate (U2OS; [4]): 1
NS(=O)(=O)c1cc(NC(=O)Cc2ccccc2)ccc1Oc1cccc(Cl)c1 [BAY-1797]	0	–	1	–	0	0	0	0	0	1	0	1	0	1	–	–	1	–	–	0	Growth Rate (Fibroblast; [10]): 1; Growth Rate (HEK-293T; [3]): 1; Growth Rate (HEK-293T; [4]): 1; Growth Rate (U2OS; [4]): 0
Cn1cc(Cl)c2c(Oc3c(F)cc(Nc4cc(Cl)nc(N)n4)cc3F)ccnc21 [BAY-4900]	0	0	1	–	–	–	1	1	1	1	0	1	1	–	–	–	1	1	0	0	Growth Rate (Fibroblast; [10]): 1; Growth Rate (HEK-293T; [3]): 0; Growth Rate (HEK-293T; [4]): 0; Growth Rate (HEK-293T; [10]): 0; Growth Rate (HEK-293T; [5]): 0
O=C(O)[C@H]1[C@H](Cn2nnc3ccccc3c2=O)CC[C@@H]1C(=O)c1ccc(OCCC2CCOCC2)cc1 [BAY-7598]	0	–	–	1	–	1	1	1	1	1	0	1	1	–	1	1	1	–	0	0	Growth Rate (Fibroblast; [6]): 1; Growth Rate (HEK-293T; [3]): 1; Growth Rate (U2OS; [4]): 0
